Measured values reported in US20170202854A1, “Method for Treatment of Primary Hormone Resistant Endometrial and Breast Cancers” (Lipoxen Technologies Limited, priority 2014, published 2017).
Read-outs that look alike come from different tables or passages of the source.

Key:
[1] = system: human primary PR-negative endometrial cancer cells HEC-1B; assay: Mouse model of primary PR-negative endometrial cancer (HEC-1B xenograft); type: in vivo, BNX nu/nu mice; details: mean±SD of 20 tumors, MA 10 mg/day i.p. 5 days/week, SC 0.3 mg/kg i.m. each alternate day
Experimental: Treatment was started on the next day after the injection and discontinued after 5 weeks. Cohorts (10 mice/group) received either:
1) Vehicle control group: vehicle only, 0.9% sodium chloride for injection i.m each alternate day and i.p. for 5 days/week. 2) MA only control group: megestrol acetate (MA) (10 mg/day) i.p. for 5 days/week.
Tumors were measured every week with vernier calipers. Tumor size was calculated using the formula: A (length)×B (width)×C (height)×0.5236.

[2] = system: secondary PR negative Ishikawa cells; assay: Model of secondary PR-negative endometrial cancer (progestin-resistant Ishikawa xenograft); type: in vivo, MF-1 female nude mice; details: MPA 250 mg/kg/day i.p. 5 days per week, SC 0.3 mg/kg i.m. each alternate day
Experimental: to obtain the secondary progestin-resistant subclones of human endometrial cancer cells, initially progestin sensitive PR-positive effect parent Ishikawa cells were routinely cultured in DMEM/F12 medium supplemented with 5% fetal bovine serum and medroxyprogesterone acetate (MPA) with 2.5 μM increases in MPA concentration (1.0-10 μM) every 4 weeks at 37° C. in a humidified atmosphere of 5% CO2. When the surviving cells had grown to a high density but were still less than confluent, cells were subcloned using 0.02% EDTA and 0.25% trypsin prepared in Hanks' balanced salt solution. MPA-containing medium was replaced every 2-3 days. Cells proliferating in 10 μM MPA with the same doubling time as the initial Ishikawa cells proliferating in the medium without MPA, were considered as secondary progestin-resistant Ishikawa cells. […] 2×10^6 secondary PR negative Ishikawa cells were inoculated into the flanks of MF-1 female nude mice in 100 μl Matrigel.
1) Vehicle control group: vehicle only, −0.9% sodium chloride for injection i.m each alternate day and i.p. for 5 days per week. 2) MPA only control group: medroxyprogesterone acetate (MPA) (250 mg/kg/day) i.p. for 5 days per week.
Tumors were measured with vernier calipers weekly. Tumor volumes (mm^3) were calculated using the modified ellipsoid formula: (length (mm)×width (mm)^2)/2. The ratio (percentage) of “Tumor volume at day n” to “tumor volume at day “0” was calculated for each animal. At the end of the experiments (day 35) animals were euthanized.

MDA-MB-468 tumor cells = details: day 21, alone or with SC 6 mg/mouse i.m. twice a week
Experimental: The MDA-MB-468 (ATCC collection number ATCC® HTB-132, Neve et al., Cancer Cell 2006, 10:515-527) tumor cells (the xenograft of human primary ER-negative breast cancer) were maintained in vitro as a monolayer culture in L-15 medium supplemented with 10% heat inactivated fetal bovine serum, 100 U/ml penicillin and 100 μg/ml streptomycin, and L-glutamine (2 mM) at 37° C. in an atmosphere of 5% CO2 in air. The tumor cells were routinely subcultured twice weekly by trypsin-EDTA treatment. The cells growing in an exponential growth phase were harvested and counted for tumor inoculation.
BALB/c nude (Shanghai Sino-British SIPPR/BK Laboratory Animal Co., Ltd.), 6-8 weeks old female mice were inoculated subcutaneously at the right flank with MDA-MB-468 tumor cells (1×10^7) in 0.2 ml of PBS supplemented with BD Matrigel (1:1) for tumor development. The treatments were started on day 17 after tumor inoculation when the average tumor size reached approximately 170 mm^3. […] Each group consisted of 8 tumor-bearing mice.
Tumor size was measured twice weekly in two dimensions using a caliper, and the volume was expressed in mm3 using the formula: V=0.5 a×b2 where a and b are the long and short diameters of the tumor, respectively.
Significance level was assumed as 0.05.

[3] = TAM 50 mg/kg oral gavage every day
[4] = TAM 100 mg/kg oral gavage every day

CC(=O)O[C@]1(C(C)=O)CC[C@H]2[C@@H]3C=C(C)C4=CC(=O)CC[C@]4(C)[C@H]3CC[C@@]21C [MA, megestrol acetate]
Tumor volume ([1]; Week 1): 58 ± 16 mm^3
Tumor volume ([1]; Week 2): 177 ± 19 mm^3
Tumor volume ([1]; Week 3): 510 ± 66 mm^3
Tumor volume ([1]; Week 4): 794 ± 111 mm^3
Tumor volume ([1]; Week 5): 1383 ± 151 mm^3

CC(=O)O[C@]1(C(C)=O)CC[C@H]2[C@@H]3C[C@H](C)C4=CC(=O)CC[C@]4(C)[C@H]3CC[C@@]21C [MPA, medroxyprogesterone acetate]
Tumor volume at day n/tumor volume at day "0", %, mean ± SEM ([2]; Day 7): 170 ± 19%
Tumor volume at day n/tumor volume at day "0", %, mean ± SEM ([2]; Day 14): 412 ± 36%
Tumor volume at day n/tumor volume at day "0", %, mean ± SEM ([2]; Day 21): 512 ± 66%
Tumor volume at day n/tumor volume at day "0", %, mean ± SEM ([2]; Day 28): 822 ± 89%
Tumor volume at day n/tumor volume at day "0", %, mean ± SEM ([2]; Day 35): 1224 ± 99%

CC/C(=C(\c1ccccc1)c1ccc(OCCN(C)C)cc1)c1ccccc1 [TAM, Tamoxifen]
TGI (MDA-MB-468 tumor cells; [3]): −65%
Tumor volume (MDA-MB-468 tumor cells; [3]): 473 ± 59 mm^3
TGI (MDA-MB-468 tumor cells; [4]): −1%
Tumor volume (MDA-MB-468 tumor cells; [4]): 355 ± 25 mm^3
